Source: US20260184707A1, “PHARMACEUTICAL COMPOUNDS FOR THE TREATMENT OF COMPLEMENT MEDIATED DISORDERS” (ALEXION PHARMACEUTICALS, INC., priority 2022, published 2026)

Target: T1, Human complement C1s enzyme (Homo sapiens, UniProt P09871)
T1 construct: purified from human serum, Complement Technology, Inc; purchased Complement Technology, Inc; host or cells: human serum (plasma-derived native protein)
T1 sequence (P09871 438-688 limits assumed): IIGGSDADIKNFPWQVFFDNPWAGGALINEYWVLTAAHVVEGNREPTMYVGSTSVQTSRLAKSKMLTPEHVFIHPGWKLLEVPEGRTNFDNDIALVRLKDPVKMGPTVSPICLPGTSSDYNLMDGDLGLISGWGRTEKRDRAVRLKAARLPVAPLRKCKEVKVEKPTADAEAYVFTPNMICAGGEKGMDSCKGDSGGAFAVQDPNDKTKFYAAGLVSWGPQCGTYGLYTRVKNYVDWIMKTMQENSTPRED
T1 sequence (P09871 16-437 partner limits assumed): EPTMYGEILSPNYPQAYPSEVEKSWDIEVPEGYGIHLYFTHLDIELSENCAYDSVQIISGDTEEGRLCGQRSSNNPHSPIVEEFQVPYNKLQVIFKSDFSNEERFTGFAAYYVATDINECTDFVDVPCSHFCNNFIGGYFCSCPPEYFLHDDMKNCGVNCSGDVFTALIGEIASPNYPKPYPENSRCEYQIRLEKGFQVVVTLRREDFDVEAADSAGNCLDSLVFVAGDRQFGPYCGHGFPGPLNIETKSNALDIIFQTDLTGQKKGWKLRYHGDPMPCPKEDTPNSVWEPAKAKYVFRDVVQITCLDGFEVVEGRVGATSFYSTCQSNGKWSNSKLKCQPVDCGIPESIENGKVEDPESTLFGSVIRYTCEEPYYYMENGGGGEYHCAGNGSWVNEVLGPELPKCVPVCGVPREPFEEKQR
Assay: Human C1s enzyme assay
Format: biochemical
Details: human complement C1s enzyme 1.16 nM, substrate Z-L-Lys-SBzl, A405; read-out: IC50 (Stars)
Summary of the method: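 Thioesterase activity followed colorimetrically (DTNB, A405, 30-s reads) using 100 μM Z-L-Lys-SBzl substrate. Enzyme, human serum-derived C1s at 1.16 nM final, was incubated with test compound for 5 min, room temperature, pH 7.5 Tris buffer with 1 M NaCl. Rate-versus-concentration data fitted by nonlinear regression for IC50.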

COc1cccc(-c2ccc(C(=O)Nc3cnc(-c4ccccc4)n(CC(=O)NCc4cc5cnccc5[nH]4)c3=O)cc2F)c1 [Compound 217, N-(1-(2-(((1H-pyrrolo[3,2-c]pyridine-2-yl)methyl)amino)-2-oxoethyl)-6-oxo-2-phenyl-1,6-dihydropyrimidin-5-yl)-2-fluoro-3′-methoxy-[1,1′-biphenyl]-4-carboxamide]
IC50: < 0.1 µM

O=C(Cn1c(-c2ccccc2)ncc(NC(=O)c2csc(-c3ccccc3)c2)c1=O)NCc1cc2cnccc2[nH]1 [Compound 218, N-(1-(2-(((1H-pyrrolo[3,2-c]pyridin-2-yl)methyl)amino)-2-oxoethyl)-6-oxo-2-phenyl-1,6-dihydropyrimidin-5-yl)-5-phen-ylthiophene-3-carboxamide]
IC50: < 0.1 µM

O=C(Cn1c(-c2ccccc2)ncc(NC(=O)c2noc(-c3ccccc3)n2)c1=O)NCc1cc2cnccc2[nH]1 [Compound 219, N-(1-(2-(((1H-pyrrolo[3,2-c]pyridine-2-yl)methyl)amino)-2-oxoethyl)-6-oxo-2-phenyl-1,6-dihydropyrimidin-5-yl)-5-phenyl-1,2,4-oxadiazole-3-carboxamide]
IC50: < 0.1 µM

O=C(Cn1c(-c2ccccc2)ncc(NC(=O)c2ccc(-c3ccccc3)s2)c1=O)Nc1nccs1 [Compound 220, N-(6-oxo-1-(2-oxo-2-(thiazol-2-ylamino)ethyl)-2-phenyl-1,6-dihydropyrimidin-5-yl)-5-phen-ylthiophene-2-carboxamide]
IC50: < 0.1 µM

O=C(Cn1c(-c2ccccc2)ncc(NC(=O)c2n[nH]c(-c3ccccc3)n2)c1=O)NCc1cc2cnccc2[nH]1 [Compound 221, N-(1-(2-(((1H-pyrrolo[3,2-c]pyridine-2-yl)methyl)amino)-2-oxoethyl)-6-oxo-2-phenyl-1,6-dihydropyrimidin-5-yl)-5-phenyl-1H-1,2,4-triazole-3-carboxamide]
IC50: < 0.1 µM

O=C(Cn1c(-c2ccccc2)ncc(NC(=O)c2cccc(-c3ncco3)c2)c1=O)NCc1cc2cnccc2[nH]1 [Compound 222, N-(1-(2-(((1H-pyrrolo[3,2-c]pyridine-2-yl)methyl)amino)-2-oxoethyl)-6-oxo-2-phenyl-1,6-dihydropyrimidin-5-yl)-3-(oxazol-2-yl)benzamide]
IC50: > 1 µM

O=C(Cn1c(-c2ccccc2)ncc(NC(=O)c2nnc(-c3ccccc3)o2)c1=O)NCc1cc2cnccc2[nH]1 [Compound 223, N-(1-(2-(((1H-pyrrolo[3,2-c]pyridine-2-yl)methyl)amino)-2-oxoethyl)-6-oxo-2-phenyl-1,6-dihydropyrimidin-5-yl)-5-phenyl-1,3,4-oxadiazole-2-carboxamide]
IC50: < 0.1 µM

O=C(Cn1c(-c2ccccc2)ncc(Nc2ccc(-c3ccccc3)cc2)c1=O)NCc1cc2cnccc2[nH]1 [Compound 224, N-((1H-pyrrolo[3,2-c]pyridin-2-yl)methyl)-2-(5-([1,1′-biphenyl]-4-ylamino)-6-oxo-2-phenylpyrimidin-1(6H)-yl)-acetamide]
IC50: 0.1 to 1 µM

O=C(Cn1c(-c2ccc(OCc3ccccn3)cc2)ncc(NC(=O)c2ccc(-c3ccccc3)cc2)c1=O)NCc1cc2cnccc2[nH]1 [Compound 225, N-[6-Oxo-1-[2-oxo-2-(1H-pyrrolo[3,2-c]pyridine-2-ylmethylamino)ethyl]-2-[4-(2-pyridylmethoxy)phenyl]pyrimidin-5-yl]-4-phenyl-benzamide]
IC50: < 0.1 µM

O=C(Cn1c(-c2ccc(F)c(F)c2)ncc(NC(=O)c2ccc(-c3ccccc3)cc2)c1=O)NCc1cc2cnccc2[nH]1 [Compound 226, N-(1-(2-(((1H-pyrrolo[3,2-c]pyridin-2-yl)methyl)amino)-2-oxoethyl)-2-(3,4-difluorophen-yl)-6-oxo-1,6-dihydropyrimi-din-5-yl)-[1,1′-biphenyl]-4-carboxamide]
IC50: < 0.1 µM

O=C(Cn1c(-c2ccccc2)ncc(NC(=O)c2csc(-c3cccs3)n2)c1=O)NCc1cc2cnccc2[nH]1 [Compound 227, N-(1-(2-(((1H-pyrrolo[3,2-c]pyridin-2-yl)methyl)amino)-2-oxoethyl)-6-oxo-2-phenyl-1,6-dihydropyrimidin-5-yl)-2-(thiophen-2-yl)thiazole-4-carboxamide]
IC50: < 0.1 µM

O=C(Cn1c(-c2ccccc2)ncc(Nc2ccc(Oc3ccccc3)cc2)c1=O)NCc1cc2cnccc2[nH]1 [Compound 228, N-((1H-pyrrolo[3,2-c]pyridin-2-yl)methyl)-2-(6-oxo-5-((4-phenoxyphenyl)amino)-2-phenylpyrimidin-1(6H)-yl)-acetamide]
IC50: < 0.1 µM

C[C@@H](Nc1cnc(-c2cccc(F)c2)n(CC(=O)NCc2cc3cnccc3[nH]2)c1=O)c1ccc2oc3ccccc3c2c1 [Compound 229, (R)-N-((1H-pyrrolo[3,2-c]pyr-idin-2-yl)methyl)-2-(5-((1-(dibenzo[b,d]furan-2-yl)ethyl)-amino)-2-(3-fluorophenyl)-6-oxopyrimidin-1(6H)-yl)acet-amide]
IC50: < 0.1 µM

C[C@@H](Nc1cnc(-c2ccc(S(C)(=O)=O)cc2)n(CC(=O)NCc2cc3cnccc3[nH]2)c1=O)c1ccc2oc3ccccc3c2c1 [Compound 230, (R)-N-((1H-pyrrolo[3,2-c]pyr-idin-2-yl)methyl)-2-(5-((1-(dibenzo[b,d]furan-2-yl)ethyl)-amino)-2-(4-(methylsulfonyl)-phenyl)-6-oxopyrimidin-1(6H)-yl)acetamide]
IC50: < 0.1 µM

O=C(Cn1c(-c2ccccc2)ncc(NC(=O)c2coc(-c3cccnc3)n2)c1=O)NCc1cc2cnccc2[nH]1 [Compound 231, N-(1-(2-(((1H-pyrrolo[3,2-c]pyridine-2-yl)methyl)amino)-2-oxoethyl)-6-oxo-2-phenyl-1,6-dihydropyrimidin-5-yl)-2-(pyridine-3-yl)oxazole-4-carboxamide]
IC50: < 0.1 µM

O=C(Cn1c(-c2ccco2)ncc(NCc2ccc3oc4ccccc4c3c2)c1=O)NCc1cc2cnccc2[nH]1 [Compound 232, N-((1H-pyrrolo[3,2-c]pyridin-2-yl)methyl)-2-(5-((dibenzo [b,d]furan-2-ylmethyl)amino)-2-(furan-2-yl)-6-oxopyrimidin-1(6H)-yl)acetamide]
IC50: < 0.1 µM

O=C(Cn1c(-c2ccccc2)ncc(NCc2coc(-c3ccccc3)n2)c1=O)NCc1cc2cnccc2[nH]1 [Compound 233, N-((1H-pyrrolo[3,2-c]pyridin-2-yl)methyl)-2-(6-oxo-2-phen-yl-5-(((2-phenyloxazol-4-yl)-methyl)amino)pyrimidin-1(6H)-yl)acetamide]
IC50: < 0.1 µM

O=C(Cn1c(-c2ccccc2)ncc(Nc2ccc3oc4ccccc4c3c2)c1=O)NCc1cc2cnccc2[nH]1 [Compound 234, N-((1H-pyrrolo[3,2-c]pyridin-2-yl)methyl)-2-(5-(dibenzo [b,d]furan-2-ylamino)-6-oxo-2-phenylpyrimidin-1(6H)-yl)-acetamide]
IC50: < 0.1 µM

O=C(Cn1c(-c2ccccc2)ncc(NC(=O)c2ccc(-c3ccccc3)s2)c1=O)Nc1nc2cnccc2s1 [Compound 235, N-(6-ox0-1-(2-oxo-2-(thiazolo [4,5-c]pyridin-2-ylamino)-ethyl)-2-phenyl-1,6-dihydro-pyrimidin-5-yl)-5-phenylthio-phene-2-carboxamide]
IC50: > 1 µM

O=C(Cn1c(-c2ccccc2)ncc(Nc2cccc(-c3ccc(F)cc3)c2)c1=O)NCc1cc2cnccc2[nH]1 [Compound 236, N-((1H-pyrrolo[3,2-c]pyridin-2-yl)methyl)-2-(5-((4′-fluoro-[1,1′-biphenyl]-3-yl)amino)-6-oxo-2-phenylpyrimidin-1(6H)-yl)acetamide]
IC50: < 0.1 µM
